The compounds below were run against T1, Recombinant human EP300 containing the bromodomain (EP300-BD (1040-1161)) (Homo sapiens, UniProt Q09472) (assay: EP300 Alphascreen binding assay).
T1 construct: Recombinant human EP300 bromodomain (EP300-BD (1040-1161)); made in house; host or cells: E. coli BL21-CodonPlus (DE3), modified pET vector
T1 sequence (Q09472 1040-1161): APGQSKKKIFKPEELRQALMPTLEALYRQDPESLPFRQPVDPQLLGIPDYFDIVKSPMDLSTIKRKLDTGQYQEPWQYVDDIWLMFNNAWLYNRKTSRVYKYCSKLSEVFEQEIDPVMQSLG
How it was run: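 Displacement of a biotinylated acetyl-K56 histone H3 peptide from the N-His bromodomain construct (1040-1161) measured by AlphaScreen proximity, beads at 7.5 μg/ml final, read 60 min after addition. Protein, peptide and compound first incubated 1 h at room temperature, pH 7.5 HEPES buffer; IC50 by four-parameter logistic fit.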

`Cc1noc(C)c1-c1cnc2c(c1)c(-c1ccc(C(=O)O)cc1OC(C)C)cn2[C@H]1CCOC1` [P-0301, (S)-4-(5-(3,5-dimethylisoxazol-4-yl)-1-(tetrahydrofuran-3-yl)-1H-pyrrolo[2,3-b]pyridin-3-yl)-3-isopropoxybenzoic acid] and `Cc1noc(C)c1-c1cnc2c(c1)c(-c1ccc(C(=O)O)cc1OC(F)(F)F)cn2[C@@H]1CCOC1` [P-0286, (R)-4-(5-(3,5-dimethylisoxazol-4-yl)-1-(tetrahydrofuran-3-yl)-1H-pyrrolo[2,3-b]pyridin-3-yl)-3-(trifluoromethoxy)benzoic acid] fall in the same range of IC50: 0.0001 to 1 µM for the first, 0.0001 to 1 µM for the second.

First: Cc1noc(C)c1-c1cnc2c(-c3cccc(C(=O)O)c3C)c(C(F)(F)F)n([C@@H](C)c3ccccn3)c2c1 [P-0246, (S)-3-(6-(3,5-dimethylisoxazol-4-yl)-1-(1-(pyridin-2-yl)ethyl)-2-(trifluoromethyl)-1H-pyrrolo[3,2-b]pyridin-3-yl)-2-methylbenzoic acid]
Second: Cc1noc(C)c1-c1cnc2c(-c3cc(C(=O)O)ccc3Cl)c(C(F)(F)F)n([C@@H](C)c3ccccn3)c2c1 [P-0257, (S)-4-chloro-3-(6-(3,5-dimethylisoxazol-4-yl)-1-(1-(pyridin-2-yl)ethyl)-2-(trifluoromethyl)-1H-pyrrolo[3,2-b]pyridin-3-yl)benzoic acid]
The IC50 of the first is higher: 1 to 8 µM for the first, 0.0001 to 1 µM for the second. The second is the more potent here.

`Cc1noc(C)c1-c1cnc2c(c1)c(-c1ccc(S(C)(=O)=O)cc1OC(C)C)cn2-c1ccccc1` [P-0302, 4-(3-(2-isopropoxy-4-(methylsulfonyl)phenyl)-1-phenyl-1H-pyrrolo[2,3-b]pyridin-5-yl)-3,5-dimethylisoxazole] and `Cc1noc(C)c1-c1cnc2c(c1)c(-c1ccc(C(=O)O)cc1OC(C)C)cn2-c1ccccc1` [P-0275, 4-(5-(3,5-dimethylisoxazol-4-yl)-1-phenyl-1H-pyrrolo[2,3-b]pyridin-3-yl)-3-isopropoxybenzoic acid] fall in the same range of IC50: 0.0001 to 1 µM for the first, 0.0001 to 1 µM for the second.

`CCOc1cc(C(=O)O)cc(OCC)c1-n1cc(-c2cnn(CC3CC3)c2)c2ncc(-c3c(C)noc3C)cc21` [P-0264, 4-(3-(1-(cyclopropylmethyl)-1H-pyrazol-4-yl)-6-(3,5-dimethylisoxazol-4-yl)-1H-pyrrolo[3,2-b]pyridin-1-yl)-3,5-diethoxybenzoic acid] and `CCOc1cc(C(=O)O)cc(OCC)c1-n1cc(-c2cnn(CCC#N)c2)c2ncc(-c3c(C)noc3C)cc21` [P-0266, 4-(3-(1-(2-cyanoethyl)-1H-pyrazol-4-yl)-6-(3,5-dimethylisoxazol-4-yl)-1H-pyrrolo[3,2-b]pyridin-1-yl)-3,5-diethoxybenzoic acid] fall in the same range of IC50: 0.0001 to 1 µM for the first, 0.0001 to 1 µM for the second.

`Cc1cc(C#N)ccc1-n1cc(-c2ccc(C(=O)O)cc2OC(F)(F)F)c2cc(-c3c(C)noc3C)cnc21` [P-0310, 4-(1-(4-cyano-2-methylphenyl)-5-(3,5-dimethylisoxazol-4-yl)-1H-pyrrolo[2,3-b]pyridin-3-yl)-3-(trifluoromethoxy)benzoic acid] and `Cc1noc(C)c1-c1cnc2c(c1)c(-c1ccc(C(=O)O)cc1OC(F)(F)F)cn2-c1ccc(C#N)cc1` [P-0313, 4-(1-(4-cyanophenyl)-5-(3,5-dimethylisoxazol-4-yl)-1H-pyrrolo[2,3-b]pyridin-3-yl)-3-(trifluoromethoxy)benzoic acid] fall in the same range of IC50: 0.0001 to 1 µM for the first, 0.0001 to 1 µM for the second.

`Cc1noc(C)c1-c1cnc2c(c1)c(-c1ccc(C(=O)O)cc1OC(F)(F)F)cn2C1CCNCC1` [P-0290, 4-(5-(3,5-dimethylisoxazol-4-yl)-1-(piperidin-4-yl)-1H-pyrrolo[2,3-b]pyridin-3-yl)-3-(trifluoromethoxy)benzoic acid] and `Cc1noc(C)c1-c1cnc2c(c1)c(-c1cc(C(=O)O)ccc1OC(F)(F)F)cn2C(C1CC1)C1CC1` [P-0284, 3-(1-(dicyclopropylmethyl)-5-(3,5-dimethylisoxazol-4-yl)-1H-pyrrolo[2,3-b]pyridin-3-yl)-4-(trifluoromethoxy)benzoic acid] fall in the same range of IC50: 0.0001 to 1 µM for the first, 0.0001 to 1 µM for the second.

`Cc1noc(C)c1-c1cnc2c(c1)c(-c1ccc(C(=O)O)cc1OC(F)(F)F)cn2-c1ccc(S(C)(=O)=O)cc1` [P-0282, 4-(5-(3,5-dimethylisoxazol-4-yl)-1-(4-(methylsulfonyl)phenyl)-1H-pyrrolo[2,3-b]pyridin-3-yl)-3-(trifluoromethoxy)benzoic acid] and `Cc1noc(C)c1-c1cnc2c(c1)c(-c1ccc(C(=O)O)cc1OC(F)(F)F)cn2-c1cnccc1F` [P-0251, 4-(5-(3,5-dimethylisoxazol-4-yl)-1-(4-fluoropyridin-3-yl)-1H-pyrrolo[2,3-b]pyridin-3-yl)-3-(trifluoromethoxy)benzoic acid] fall in the same range of IC50: 0.0001 to 1 µM for the first, 0.0001 to 1 µM for the second.

`Cc1noc(C)c1-c1cnc2c(c1)c(-c1ccc(C(=O)O)cc1OC(F)(F)F)cn2-c1cnn(CC(C)(C)O)c1` [P-0294, 4-(5-(3,5-dimethylisoxazol-4-yl)-1-(1-(2-hydroxy-2-methylpropyl)-1H-pyrazol-4-yl)-1H-pyrrolo[2,3-b]pyridin-3-yl)-3-(trifluoromethoxy)benzoic acid] and `Cc1noc(C)c1-c1cnc2c(c1)c(-c1ccc(C(=O)O)cc1OC(C)C)cn2-c1cnn(CC(C)(C)O)c1` [P-0299, 4-(5-(3,5-dimethylisoxazol-4-yl)-1-(1-(2-hydroxy-2-methylpropyl)-1H-pyrazol-4-yl)-1H-pyrrolo[2,3-b]pyridin-3-yl)-3-isopropoxybenzoic acid] fall in the same range of IC50: 0.0001 to 1 µM for the first, 0.0001 to 1 µM for the second.

`Cc1noc(C)c1-c1cnc2c(c1)c(-c1ccc(C(=O)O)nc1)cn2C(c1ccccn1)C1CCCC1` (centres unmarked) [P-0026, 5-(1-(cyclopentyl(pyridin-2-yl)methyl)-5-(3,5-dimethylisoxazol-4-yl)-1H-pyrrolo[2,3-b]pyridin-3-yl)picolinic acid] and `Cc1noc(C)c1-c1cnc2c(c1)c(-c1ccc(C(=O)O)c(F)c1)cn2C(c1ccccn1)C1CCCC1` (centres unmarked) [P-0025, 4-(1-(cyclopentyl(pyridin-2-yl)methyl)-5-(3,5-dimethylisoxazol-4-yl)-1H-pyrrolo[2,3-b]pyridin-3-yl)-2-fluorobenzoic acid] fall in the same range of IC50: 0.0001 to 1 µM for the first, 0.0001 to 1 µM for the second.

`Cc1noc(C)c1-c1cnc2c(c1)c(-c1ccc(C(=O)O)cc1OC(C)C)cn2-c1cnc(N2CCC2)nc1` [P-0300, 4-(1-(2-(azetidin-1-yl)pyrimidin-5-yl)-5-(3,5-dimethylisoxazol-4-yl)-1H-pyrrolo[2,3-b]pyridin-3-yl)-3-isopropoxybenzoic acid] and `Cc1noc(C)c1-c1cnc2c(c1)c(-c1ccc(C(=O)O)cc1OCC(F)F)cn2-c1ccncc1Cl` [P-0306, 4-(1-(3-chloropyridin-4-yl)-5-(3,5-dimethylisoxazol-4-yl)-1H-pyrrolo[2,3-b]pyridin-3-yl)-3-(2,2-difluoroethoxy)benzoic acid] fall in the same range of IC50: 0.0001 to 1 µM for the first, 0.0001 to 1 µM for the second.

First: CCOc1c(F)c(C(=O)O)c(F)c(OCC)c1-c1cn(-c2ccc(F)cc2F)c2ncc(-c3c(C)noc3C)cc12 [P-0296, 4-(1-(2,4-difluorophenyl)-5-(3,5-dimethylisoxazol-4-yl)-1H-pyrrolo[2,3-b]pyridin-3-yl)-3,5-diethoxy-2,6-difluorobenzoic acid]
Second: CCOC(=O)c1cc(-c2cn(-c3ccc(F)cc3F)c3ncc(-c4c(C)noc4C)cc23)c(OCC)cc1O [P-0248, ethyl 5-(1-(2,4-difluorophenyl)-5-(3,5-dimethylisoxazol-4-yl)-1H-pyrrolo[2,3-b]pyridin-3-yl)-4-ethoxy-2-hydroxybenzoate]
The IC50 of the first is lower: 0.0001 to 1 µM for the first, 8 to 1000 µM for the second. The first is the more potent here.

`Cc1noc(C)c1-c1cnc2c(-c3ccc(C(=O)O)cc3C#N)c(C(F)(F)F)n([C@@H](C)c3ccccn3)c2c1` [P-0256, (S)-3-cyano-4-(6-(3,5-dimethylisoxazol-4-yl)-1-(1-(pyridin-2-yl)ethyl)-2-(trifluoromethyl)-1H-pyrrolo[3,2-b]pyridin-3-yl)benzoic acid] and `Cc1noc(C)c1-c1cnc2c(c1)c(-c1ccc(C(=O)O)cc1OC(F)(F)F)cn2-c1ccncc1Cl` [P-0253, 4-(1-(3-chloropyridin-4-yl)-5-(3,5-dimethylisoxazol-4-yl)-1H-pyrrolo[2,3-b]pyridin-3-yl)-3-(trifluoromethoxy)benzoic acid] fall in the same range of IC50: 0.0001 to 1 µM for the first, 0.0001 to 1 µM for the second.

`CCOc1cc(C(=O)O)cc(OCC)c1-n1cc(-c2cnn(CC(=O)N(C)C)c2)c2ncc(-c3c(C)noc3C)cc21` [P-0267, 4-(3-(1-(2-(dimethylamino)-2-oxoethyl)-1H-pyrazol-4-yl)-6-(3,5-dimethylisoxazol-4-yl)-1H-pyrrolo[3,2-b]pyridin-1-yl)-3,5-diethoxybenzoic acid] and `CCOc1cc(C(=O)O)cc(OCC)c1-n1cc(-c2cnn(C(F)F)c2)c2ncc(-c3c(C)noc3C)cc21` [P-0261, 4-(3-(1-(difluoromethyl)-1H-pyrazol-4-yl)-6-(3,5-dimethylisoxazol-4-yl)-1H-pyrrolo[3,2-b]pyridin-1-yl)-3,5-diethoxybenzoic acid] fall in the same range of IC50: 0.0001 to 1 µM for the first, 0.0001 to 1 µM for the second.

`CCn1cc(-n2cc(-c3ccc(C(=O)O)cc3OC(F)(F)F)c3cc(-c4c(C)noc4C)cnc32)c(C)n1` [P-0287, 4-(5-(3,5-dimethylisoxazol-4-yl)-1-(1-ethyl-3-methyl-1H-pyrazol-4-yl)-1H-pyrrolo[2,3-b]pyridin-3-yl)-3-(trifluoromethoxy)benzoic acid] and `Cc1noc(C)c1-c1cnc2c(c1)c(-c1ccc(C(=O)O)cc1OC(F)(F)F)cn2-c1ccccc1C1CC1` [P-0308, 4-(1-(2-cyclopropylphenyl)-5-(3,5-dimethylisoxazol-4-yl)-1H-pyrrolo[2,3-b]pyridin-3-yl)-3-(trifluoromethoxy)benzoic acid] fall in the same range of IC50: 0.0001 to 1 µM for the first, 0.0001 to 1 µM for the second.

Compound `Cc1noc(C)c1-c1cnc2c(c1)c(-c1ccc(C(N)=O)cc1)cn2C(c1ccccn1)C1CCCC1` (centres unmarked) [P-0020, 4-(1-(cyclopentyl(pyridin-2-yl)methyl)-5-(3,5-dimethylisoxazol-4-yl)-1H-pyrrolo[2,3-b]pyridin-3-yl)benzamide] has an IC50 of 1 to 8 µM.

Source: US11446287B2, “Compounds and methods for EP300 or CBP modulation and indications therefor” (Opna Immuno-Oncology SA, priority 2019, dated 2022)
